# Test system: HCV genotype 1b replicon
# Assay: HCV replicon assay, genotype 1b replicon EC50
# Assay type: cell-based, Hepatitis C virus
# Conditions: Hepatitis C virus, genotype 1b replicon; read-out: EC50 [gt-1b]
# Procedure: Measuring Compound Inhibitory Potency (Genotype 1b Replicon EC50 (nM))
# Measurement of inhibition by compounds was performed using the HCV replicon system. Several different replicons encoding different HCV genotypes or mutations were used. In addition, potency measurements were made using different formats of the replicon assay, including different ways of measurements and different plating formats. See Jan M. Vrolijk et al., A replicons-based bioassay for the measurement of interferons in patients with chronic hepatitis C, 110 J. VIROLOGICAL METHODS 201 (2003); Steven S. Carroll et al., Inhibition of Hepatitis C Virus RNA Replication by 2′-Modified Nucleoside Analogs, 278(14) J. BIOLOGICAL CHEMISTRY 11979 (2003). However, the underlying principles are common to all of these determinations, and are outlined below.
# Stable neomycin phosphotransferase encoding replicon-harboring cell lines were used, so all cell lines were maintained under G418 selection prior to the assay. In some cases the cell lines encoded a luciferase:Neo^r fusion and could be assayed either directly by determination of RNA copy number, or indirectly through measurement of the luciferase activity.
# To initiate an assay, replicon cells were plated in the presence of a dilution series of test compound in the absence of G418. Typically, the assays were performed in a 96-well plate format for manual operation, or a 384 well plate in an automated assay. Replicon cells and compound were incubated for 24-48 hours, depending on the assay. At the end of the assay, cells are washed free of media and compound and then lysed. For direct quantitation, RNA levels were measured by ^32P-probe hybridization and protection, or in a TAQMAN based assay and normalized to cellular cyclophilin A RNA levels. In some cases, luciferase activity was measured using a conventional luciferase assay. In all cases EC50 determinations were calculated as a percent of a DMSO control by fitting the data to a four parameter fit function.
row,Compound,EC50 [nM]
1,"CC(C)(C)OC(=O)N[C@H]1CCCCC/C=C\[C@@H]2C[C@@]2(C(=O)NS(=O)(=O)C2(C)CC2)NC(=O)[C@@H]2C[C@]3(CCc4c(c(-c5cccc(F)c5)nc5ccccc45)O3)CN2C1=O [Example 13, tert-Butyl (2R,6S,13aS,14aR,16aS,Z)-5′-(3-fluorophenyl)-14a-(1-methylcyclopropylsulfonylcarbamoyl)-5,16-dioxo-1′,2′,3,5,6,7,8,9,10,11,13a,14,14a,15,16,16a-hexadecahydro-1H-spiro[cyclopropa[e]pyrrolo[1,2-a][1,4]diazacyclopentadecine-2,3′-pyrano[2,3-c]quinoline-]-6-ylcarbamate]",4.23
2,"CC1(S(=O)(=O)NC(=O)[C@@]23C[C@H]2/C=C\CCCCC[C@H](NC(=O)NC2CCCC2)C(=O)N2C[C@@]4(CCc5c(c(-c6cccc(F)c6)nc6ccccc56)O4)C[C@H]2C(=O)N3)CC1 [Example 82, (2R,6S,12Z,13aS,14aR,16aS)-6-[(cyclopentylcarbamoyl)amino]-5′-(3-fluorophenyl)-N-[(1-methylcyclopropyl)sulfonyl]-5,16-dioxo-1,1′,2′,6,7,8,9,10,11,13a,14,15,16,16a-tetradecahydrospiro[cyclopropa[e]pyrrolo[1,2-a][1,4]diazacyclopentadecine-2,3′-pyrano[2,3-c]quinoline]-14a(5H)-carboxamide]",4.25
3,"Cc1nc2ccccc2c2c1O[C@]1(CC2)C[C@H]2C(=O)N[C@]3(C(=O)NS(=O)(=O)C4(C)CC4)C[C@H]3/C=C\CCCCC[C@H](NC(=O)CC(F)(F)F)C(=O)N2C1 [Example 84, (2R,6S,12Z,13aS,14aR,16aS)-5′-methyl-N-[(1-methylcyclopropyl)sulfonyl]-5,16-dioxo-6-[(3,3,3-trifluoropropanoyl)amino]-1,1′,2′,6,7,8,9,10,11,13a,14,15,16,16a-tetradecahydrospiro[cyclopropa[e]pyrrolo[1,2-a][1,4]diazacyclopentadecine-2,3′-pyrano[2,3-c]quinoline]-14a(5H)-carboxamide]",7.79
4,"CC(C)COC(=O)N[C@H]1CCCCC/C=C\[C@@H]2C[C@@]2(C(=O)NS(=O)(=O)C2(C)CC2)NC(=O)[C@@H]2C[C@]3(CCc4c(c(-c5cccc(F)c5)nc5ccccc45)O3)CN2C1=O [Example 21, Isobutyl (2R,6S,13aS,14aR,16aS,Z)-5′-(3-fluorophenyl)-14a-(1-methylcyclopropylsulfonylcarbamoyl)-5,16-dioxo-1′,2′,3,5,6,7,8,9,10,11,13a,14,14a,15,16,16a-hexadecahydro-1H-spiro[cyclopropa[e]pyrrolo[1,2-a][1,4]diazacyclopentadecine-2,3′-pyrano[2,3-c]quinoline]-6-ylcarbamate]",0.81
5,"Cc1ccc2nc(C)c3c(c2c1)CC[C@]1(C[C@H]2C(=O)N[C@]4(C(=O)O)C[C@H]4/C=C\CCCCC[C@H](NC(=O)OC(C)(C)C)C(=O)N2C1)O3 [Example 86, (2R,6S,12Z,13aS,14aR,16aS)-6-[(tert-butoxycarbonyl)amino]-5′,9′-dimethyl-5,16-dioxo-1,1′,2′,6,7,8,9,10,11,13a,14,15,16,16a-tetradecahydrospiro[cyclopropa[e]pyrrolo[1,2-a][1,4]diazacyclopentadecine-2,3′-pyrano[2,3-c]quinoline]-14a(5H)-carboxylic acid]",> 100
6,"CC1(S(=O)(=O)NC(=O)[C@@]23C[C@H]2/C=C\CCCCC[C@H](NC(=O)NC2CCCCC2)C(=O)N2C[C@@]4(CCc5c(c(-c6cccc(F)c6)nc6ccccc56)O4)C[C@H]2C(=O)N3)CC1 [Example 83, (2R,6S,12Z,13aS,14aR,16aS)-6-[(cyclohexylcarbamoyl)amino]-5′-(3-fluorophenyl)-N-[(1-methylcyclopropyl)sulfonyl]-5,16-dioxo-1,1′,2′,6,7,8,9,10,11,13a,14,15,16,16a-tetradecahydrospiro[cyclopropa[e]pyrrolo[1,2-a][1,4]diazacyclopentadecine-2,3′-pyrano[2,3-c]quinoline]-14a(5H)-carboxamide]",3.71
7,"CC(C)(C)OC(=O)N[C@H]1CCCCC/C=C\[C@@H]2C[C@@]2(C(=O)NS(=O)(=O)C2(C)CC2)NC(=O)[C@@H]2C[C@@]3(CCc4c(c(-c5cccc(F)c5)nc5ccccc45)O3)CN2C1=O [Example 14, tert-Butyl (2S,6S,13aS,14aR,16aS,Z)-5′-(3-fluorophenyl)-14a-(1-methylcyclopropylsulfonylcarbamoyl)-5,16-dioxo-1′,2′,3,5,6,7,8,9,10,11,13a,14,14a,15,16,16a-hexadecahydro-1H-spiro[cyclopropa[e]pyrrolo[1,2-a][1,4]diazacyclopentadecine-2,3′-pyrano[2,3-c]quinoline]-6-ylcarbamate]",6.5
8,"CC(C)OC(=O)N[C@H]1CCCCC/C=C\[C@@H]2C[C@@]2(C(=O)NS(=O)(=O)C2(C)CC2)NC(=O)[C@@H]2C[C@]3(CCc4c(c(-c5cccc(F)c5)nc5ccccc45)O3)CN2C1=O [Example 89, propan-2-yl [(2R,6S,12Z,13aS,14aR,16aS)-5′-(3-fluorophenyl)-14a-{[(1-methylcyclopropyl)sulfonyl]carbamoyl}-5,16-dioxo-1,1′,2′,5,6,7,8,9,10,11,13a,14,14a,15,16,16a-hexadecahydrospiro[cyclopropa[e]pyrrolo[1,2-a][1,4]diazacyclopentadecine-2,3′-pyrano[2,3-c]quinolin]-6-yl]carbamate]",2.85
9,"CC(C)(C)OC(=O)N[C@H]1CCCCC/C=C\[C@@H]2C[C@@]2(C(=O)O)NC(=O)[C@@H]2C[C@]3(CCc4c(c(-c5cccc(F)c5)nc5ccccc45)O3)CN2C1=O [Example 77, (2R,6S,12Z,13aS,14aR,16aS)-6-[(tert-butoxycarbonyl)amino]-5′-(3-fluorophenyl)-5,16-dioxo-1,1′,2′,6,7,8,9,10,11,13a,14,15,16,16a-tetradecahydrospiro[cyclopropa[e]pyrrolo[1,2-a][1,4]diazacyclopentadecine-2,3′-pyrano[2,3-c]quinoline]-14a(5H)-carboxylic acid]",> 100
10,"Cc1nc2ccccc2c2c1O[C@]1(CC2)C[C@H]2C(=O)N[C@]3(C(=O)NS(=O)(=O)C4(C)CC4)C[C@H]3/C=C\CCCCC[C@H](NC(=O)OC3(C)CCC3)C(=O)N2C1 [Example 80, 1-methylcyclobutyl [(2R,6S,12Z,13aS,14aR,16aS)-5′-methyl-14a-{[(1-methylcyclopropyl)sulfonyl]carbamoyl}-5,16-dioxo-1,1′,2′,5,6,7,8,9,10,11,13a,14,14a,15,16,16a-hexadecahydrospiro[cyclopropa[e]pyrrolo[1,2-a][1,4]diazacyclopentadecine-2,3′-pyrano[2,3-c]quinolin]-6-yl]carbamate]",1.47
11,"CC1(OC(=O)N[C@H]2CCCCC/C=C\[C@@H]3C[C@@]3(C(=O)NS(=O)(=O)C3(C)CC3)NC(=O)[C@@H]3C[C@]4(CCc5c(c(-c6cccc(F)c6)nc6ccccc56)O4)CN3C2=O)CC1 [Example 22, 1-Methylcyclopropyl (2R,6S,13aS,14aR,16aS,Z)-5′-(3-fluorophenyl)-14a-(1-methylcyclopropylsulfonylcarbamoyl)-5,16-dioxo-1′,2′,3,5,6,7,8,9,10,11,13a,14,14a,15,16, 16a-hexadecahydro-1H-spiro[cyclopropa[e]pyrrolo[1,2-a][1,4]diazacyclopentadecine-2,3′-pyrano[2,3-c]quinoline]-6-ylcarbamate]",4.14

# Same assay, conditions: genotype 1b replicon; read-out: EC50 [gt-1b]
row,Compound,EC50 [nM]
1,"COc1ccc2nc(C(F)(F)F)c3c(c2c1)[C@H](OC(=O)NS(=O)(=O)C1(C)CC1)C[C@]1(C[C@H]2C(=O)N[C@]4(C(=O)NS(=O)(=O)C5(C)CC5)C[C@H]4/C=C\CCCCC[C@H](NC(=O)OC(C)(C)C)C(=O)N2C1)O3 [Example 53, tert-Butyl ((1′R,2S,6S,13aS,14aR,16aS,Z)-9′-methoxy-14a-(((1-methylcyclopropyl)sulfonyl)carbamoyl)-1′-((((1-methylcyclopropyl)sulfonyl)carbamoyl)oxy)-5,16-dioxo-5′-(trifluoromethyl)-1′,2′,3,5,6,7,8,9,10,11,13a,14,14a,15,16,16a-hexadecahydro-1H-spiro[cyclopropa[e]pyrrolo[1,2-a][1,4]diazacyclopentadecine-2,3′-pyrano[2,3-c]quinolin]-6-yl)carbamate]",15.9
2,"COc1ccc2nc(C(F)(F)F)c3c(c2c1)[C@H](OC(=O)NS(=O)(=O)C1(C)CC1)C[C@]1(C[C@H]2C(=O)N[C@]4(C(=O)NS(=O)(=O)C5(C)CC5)C[C@H]4/C=C\CCCCC[C@H](NC(=O)OC(C)(C)C)C(=O)N2C1)O3 [Example 52, tert-Butyl ((1′R,2S,6S,13aS,14aR,16aS,Z)-9′-methoxy-14a-(((1-methylcyclopropyl)sulfonyl)carbamoyl)-1′-((((1-methylcyclopropyl)sulfonyl)carbamoyl)oxy)-5,16-dioxo-5′-(trifluoromethyl)-1′,2′,3,5,6,7,8,9,10,11,13a,14,14a,15,16,16a-hexadecahydro-1H-spiro[cyclopropa[e]pyrrolo[1,2-a][1,4]diazacyclopentadecine-2,3′-pyrano[2,3-c]quinolin]-6-yl)carbamate]",1.77

# Reference: patent publication US8987195B2 (priority 2012, dated 2015)
